From patent US10196357B2, “Biaryl compositions and methods for modulating a kinase cascade” (Athenex, Inc., priority 2007, dated 2019)
“And” between values parts separate entries of the source, which are not always exact repeats. Equal values may be shown once.

Legend:
[1] = test system: Ba/F3 (IL-3 induced); test: MTT growth inhibition, Ba/F3 + IL-3; type: cell-based; details: 96 hrs, read-out: GI50
[2] = test system: L3.6pl cells; test: growth inhibition (BrdU), L3.6pl; type: cell-based, human; details: L3.6pl (Pancreas) cells, single agent
Description: L3.6pl cells are previously described in Trevino et al. Am J Pathol.

[3] = test system: HCT116; test: MTT growth inhibition, Dasatinib-resistant HCT116; type: cell-based, human; details: HCT116, 8.0×10^3 cells/well, […] FBS, 78 Hr
Experimental: (§5) Cell proliferation/growth inhibition was assessed using MTT colorimetric assay.
(§6) On Day 3, 10 μL MTT (5 mg/mL) was added to each well. Cells were then incubated in the presence of MTT for 4 hours at 37° C., appropriate CO2 conditions. After this incubation period, 90 μL 10% SDS(+HCl) was added to each well to lyse cells and solubilize formazan. Cells were then incubated overnight at 37° C., appropriate CO2 conditions.
(§7) The OD570 was measured using microplate reader. Growth inhibition curves and EC50/IC50 was determined using GraphPad Prism 4 statistical software.

[4] = test system: JAK1 Y1022/1023; test: whole cell phosphorylation, JAK1; type: cell-based; details: whole cells
[5] = target: isolated Src (Homo sapiens, UniProt P12931); test: titration against isolated Src; type: biochemical; details: titration data
Chain of isolated Src (P12931 whole entry): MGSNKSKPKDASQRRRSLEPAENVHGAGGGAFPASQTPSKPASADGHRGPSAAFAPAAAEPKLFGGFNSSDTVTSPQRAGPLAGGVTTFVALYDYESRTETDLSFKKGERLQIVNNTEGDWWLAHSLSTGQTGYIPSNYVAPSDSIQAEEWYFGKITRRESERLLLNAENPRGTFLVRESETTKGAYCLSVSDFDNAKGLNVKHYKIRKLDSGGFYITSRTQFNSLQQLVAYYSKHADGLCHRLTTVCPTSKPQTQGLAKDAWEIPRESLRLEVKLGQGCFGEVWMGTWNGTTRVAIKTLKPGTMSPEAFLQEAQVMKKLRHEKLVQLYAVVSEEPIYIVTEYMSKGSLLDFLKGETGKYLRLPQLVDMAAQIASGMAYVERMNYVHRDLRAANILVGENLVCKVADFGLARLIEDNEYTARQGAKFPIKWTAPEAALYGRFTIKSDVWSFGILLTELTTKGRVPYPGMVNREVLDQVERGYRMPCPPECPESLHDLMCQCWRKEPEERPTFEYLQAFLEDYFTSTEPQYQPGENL

[6] = test system: K562R (Gleevec resistant CML); test: growth inhibition, K562R; type: cell-based, Human
[7] = test system: PC3-MM2 (Prostate); test: growth inhibition, PC3-MM2; type: cell-based, Human; details: PC3-MM2 (Prostate) cells
[8] = test system: PDGF receptor tyrosine kinase Y572/574; test: PDGF receptor autophosphorylation in cells; type: cell-based; details: c-Src527F/NIH-3T3 cells
Experimental: (§1) HT29 (colon cancer) and c-Src527F/NIH-3T3 (Src transformed) cell lines were treated with KX2-391 or with AstraZeneca's ATP competitive Src inhibitor AZ28. AZ28 serves as a positive comparator to show what a validated Src inhibitor should do in these assays. After treatment with compound, cells were lysed, subjected to PAGE and probed with a battery of antibodies. […] In addition, off-target protein phosphorylation was also investigated. Further, induction of apoptosis was evaluated via Caspase 3 cleavage. Multiple doses of each compound were tested because the trends in response to increasing drug concentration are the most reliable indicator of activity.
(§2) The same range of multiples of the GI50 for AZ28 in these two cell lines was run as a comparison.
This is thought not to be a direct Src substrate in cells.

[9] = test system: protein tyrosine kinases (PTKs); test: selectivity for protein tyrosine kinases in whole cells; type: cell-based; details: as compared to Dasatinib
Description: The compounds of the invention are selective for protein tyrosine kinases (PTKs). […] SYF cells are mouse fibroblasts that lack the Src kinase family members Src, Yes and Fyn.

[10] = test system: SKOV-3 (Ovarian); test: growth inhibition (BrdU), SKOV-3; type: cell-based, Human
Description: Growth Inhibition. […] T1 values≤T0 values were designated as T, cytotoxicity.

[11] = test system: Shc Y239/240; test: intracellular phosphorylation, Shc Y239/240; type: cell-based; details: whole cells
Experimental: as §1, §2
KX2-391 and AZ28 inhibited Src transphosphorylation.

[12] = test system: Ba/F3 + WT BCR-Abl; test: MTT growth inhibition, Ba/F3 + WT BCR-Abl; type: cell-based; details: 96 hrs
Description: Cultures of Ba/F3 cells were also transfected to express wild-type (WT) Bcr-Abl, E255K mutation of Bcr-Abl, or T315I mutation of Bcr-Abl and cultured in 96-well plates in complete media without IL-3. The Ba/F3 cell line is rendered Gleevec resistant when the mutation in the Bcr/Abl tyrosine kinase […] is present. […] All assays are in triplicate.

[13] = test system: GL261; test: brain tumor cell growth inhibition, GL261; type: cell-based; details: GL261, mouse glioblastoma; read-out: IC50 (title: GI50)
[14] = test system: JAK2 Y1007/1008; test: whole cell phosphorylation, JAK2; type: cell-based; details: whole cells
[15] = test system: COLO-320DM; test: MTT growth inhibition, Dasatinib-resistant COLO-320DM; type: cell-based, human; details: 8.0×10^3 cells/well, […] FBS, 78 Hr
Experimental: as §5, §6, §7

[16] = test system: H460; test: MTT growth inhibition, Dasatinib-resistant H460; details: H460, 8.0×10^3 cells/well, […] FBS, 78 Hr
Experimental: as §5, §6, §7

[17] = target: PDGFRβ(h) (Homo sapiens, UniProt P09619); test: isolated kinase activity, PDGFRβ; type: biochemical; details: compound @ 10 μM
Chain of PDGFRβ(h) (P09619 33-1106): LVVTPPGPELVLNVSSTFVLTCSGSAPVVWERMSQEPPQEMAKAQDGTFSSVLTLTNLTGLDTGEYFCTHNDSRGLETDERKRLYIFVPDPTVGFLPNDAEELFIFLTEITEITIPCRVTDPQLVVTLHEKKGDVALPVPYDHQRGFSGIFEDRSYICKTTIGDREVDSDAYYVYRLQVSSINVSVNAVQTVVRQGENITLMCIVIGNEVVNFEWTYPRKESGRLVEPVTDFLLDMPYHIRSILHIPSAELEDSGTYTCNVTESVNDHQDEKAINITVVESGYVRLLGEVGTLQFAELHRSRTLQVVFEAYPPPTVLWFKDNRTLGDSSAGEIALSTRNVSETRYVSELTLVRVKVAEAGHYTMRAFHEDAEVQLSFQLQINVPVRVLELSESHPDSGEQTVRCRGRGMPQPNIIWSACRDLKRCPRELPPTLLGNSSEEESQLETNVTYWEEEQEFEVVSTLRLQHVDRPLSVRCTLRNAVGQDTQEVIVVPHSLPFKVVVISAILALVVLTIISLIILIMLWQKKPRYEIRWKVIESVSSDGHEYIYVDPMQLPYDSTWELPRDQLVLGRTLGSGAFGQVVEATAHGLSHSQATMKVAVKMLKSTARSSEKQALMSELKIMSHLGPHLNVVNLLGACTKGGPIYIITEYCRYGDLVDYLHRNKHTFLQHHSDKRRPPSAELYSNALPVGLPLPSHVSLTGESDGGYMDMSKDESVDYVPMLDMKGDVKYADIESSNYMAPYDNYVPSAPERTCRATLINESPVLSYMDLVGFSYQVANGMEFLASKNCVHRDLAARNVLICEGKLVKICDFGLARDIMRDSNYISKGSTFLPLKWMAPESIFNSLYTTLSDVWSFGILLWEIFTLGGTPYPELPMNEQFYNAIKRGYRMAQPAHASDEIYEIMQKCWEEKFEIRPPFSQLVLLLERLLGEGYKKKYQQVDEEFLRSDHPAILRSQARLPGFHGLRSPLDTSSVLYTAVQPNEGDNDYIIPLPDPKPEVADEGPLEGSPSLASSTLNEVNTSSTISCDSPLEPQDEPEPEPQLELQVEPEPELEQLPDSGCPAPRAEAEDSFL
Description: (§3) Table 8 illustrates percent activity of isolated kinases in the presence of the AstraZeneca ATP-competitive inhibitor (KX2-328, AZ-28) or KX2-391 relative to control (untreated) isolated kinases.

[18] = body weight in GL261 glioma survival study; type: in vivo; details: C57BL/6 mice
Experimental: (§4) A brain tumor mouse xenograft study was conducted comparing KX2-361 and KX2-391 (KXO1) to Temodar®. The studies were conducted in C57BL/6 mice. GL261 glioma cells (1×10^5 in 5 μl DMEM) were implanted intracranial coordinates: bregma, lateral 2.0 mm, anterior 1.2 mm, 3.0 mm depth dura. Treatment was initiated 3 days post implantation. The groups were as follows (all doses in 100 μl H2O):
FIGS. 49A-E show the weight gain in each of the C57BL/6 mice in the different treatment groups. The average weight at endpoint for each of the treatment groups is shown below in Table 30. FIG. 50 is a graph showing the average weights over a 40-day period for each of the treatment groups.

[19] = target: FGFR2(h) (Homo sapiens, UniProt P21802); test: isolated kinase activity, FGFR2; type: biochemical; details: compound @ 10 μM
Chain of FGFR2(h) (P21802 22-821): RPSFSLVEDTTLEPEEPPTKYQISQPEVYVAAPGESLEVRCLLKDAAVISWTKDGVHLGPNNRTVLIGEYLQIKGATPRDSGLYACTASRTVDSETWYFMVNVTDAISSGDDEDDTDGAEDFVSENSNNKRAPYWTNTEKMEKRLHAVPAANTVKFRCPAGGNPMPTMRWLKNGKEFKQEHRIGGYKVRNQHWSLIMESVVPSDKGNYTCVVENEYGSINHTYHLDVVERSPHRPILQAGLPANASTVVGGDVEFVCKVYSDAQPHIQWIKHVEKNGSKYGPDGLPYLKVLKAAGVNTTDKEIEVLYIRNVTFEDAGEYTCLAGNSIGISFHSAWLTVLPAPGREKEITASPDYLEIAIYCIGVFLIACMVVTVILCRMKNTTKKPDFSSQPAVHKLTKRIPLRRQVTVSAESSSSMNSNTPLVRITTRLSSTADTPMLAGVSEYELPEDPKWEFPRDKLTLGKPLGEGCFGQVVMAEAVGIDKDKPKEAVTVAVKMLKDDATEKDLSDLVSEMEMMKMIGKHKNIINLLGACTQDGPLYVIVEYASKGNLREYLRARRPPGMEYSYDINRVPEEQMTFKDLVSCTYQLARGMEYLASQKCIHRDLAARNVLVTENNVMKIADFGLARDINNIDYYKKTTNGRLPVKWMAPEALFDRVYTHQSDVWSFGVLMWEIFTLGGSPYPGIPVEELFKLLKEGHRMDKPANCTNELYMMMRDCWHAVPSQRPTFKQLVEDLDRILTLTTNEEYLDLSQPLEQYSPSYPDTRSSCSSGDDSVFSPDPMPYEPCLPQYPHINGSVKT
Description: as §3

[20] = test system: GL261 glioma cells; test: intracranial GL261 glioma survival study; type: in vivo, C57BL/6 mice; details: for Median survival / survival Range: C57BL/6 mice, intracranial GL261
Experimental: as §4
The median survival range and the log-rank (Mantel-Cox) statistical test results comparing the survival distributions of the samples.

[21] = test system: Caspase-3 cleavage; test: induction of apoptosis via Caspase 3 cleavage; type: cell-based; details: HT29 and c-Src527F/NIH-3T3 cells
Experimental: as §1, §2
Cleavage of Caspase-3 is a good measure of induction of apoptosis.

[22] = test system: Paxillin Y-31; test: intracellular phosphorylation, Paxillin Y-31; type: cell-based; details: c-Src527F/NIH-3T3 cells
Experimental: as §1, §2

[23] = target: ZAP-70(h) (Homo sapiens, UniProt P43403); test: isolated kinase activity, ZAP-70; type: biochemical; details: compound @ 10 μM
Chain of ZAP-70(h) (P43403 whole entry): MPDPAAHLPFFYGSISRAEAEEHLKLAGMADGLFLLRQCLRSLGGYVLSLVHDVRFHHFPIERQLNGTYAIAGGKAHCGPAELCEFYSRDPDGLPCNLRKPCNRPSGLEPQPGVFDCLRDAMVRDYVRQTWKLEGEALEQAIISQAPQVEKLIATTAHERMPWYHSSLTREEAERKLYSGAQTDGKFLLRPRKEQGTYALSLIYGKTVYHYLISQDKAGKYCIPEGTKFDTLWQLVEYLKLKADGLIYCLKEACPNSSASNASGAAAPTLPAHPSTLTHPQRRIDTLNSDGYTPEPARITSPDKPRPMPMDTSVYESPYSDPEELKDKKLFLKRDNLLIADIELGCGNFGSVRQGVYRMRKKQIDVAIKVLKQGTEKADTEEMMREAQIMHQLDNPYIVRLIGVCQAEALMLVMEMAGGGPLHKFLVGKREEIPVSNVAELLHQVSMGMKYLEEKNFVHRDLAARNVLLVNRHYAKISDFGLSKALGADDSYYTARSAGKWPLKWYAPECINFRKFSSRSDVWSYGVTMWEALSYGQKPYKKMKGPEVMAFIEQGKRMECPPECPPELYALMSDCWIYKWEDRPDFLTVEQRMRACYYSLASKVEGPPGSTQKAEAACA
Description: as §3

[24] = target: Pyk2(h) (Homo sapiens, UniProt Q14289); test: isolated kinase activity, Pyk2; type: biochemical; details: compound @ 10 μM
Chain of Pyk2(h) (Q14289 whole entry): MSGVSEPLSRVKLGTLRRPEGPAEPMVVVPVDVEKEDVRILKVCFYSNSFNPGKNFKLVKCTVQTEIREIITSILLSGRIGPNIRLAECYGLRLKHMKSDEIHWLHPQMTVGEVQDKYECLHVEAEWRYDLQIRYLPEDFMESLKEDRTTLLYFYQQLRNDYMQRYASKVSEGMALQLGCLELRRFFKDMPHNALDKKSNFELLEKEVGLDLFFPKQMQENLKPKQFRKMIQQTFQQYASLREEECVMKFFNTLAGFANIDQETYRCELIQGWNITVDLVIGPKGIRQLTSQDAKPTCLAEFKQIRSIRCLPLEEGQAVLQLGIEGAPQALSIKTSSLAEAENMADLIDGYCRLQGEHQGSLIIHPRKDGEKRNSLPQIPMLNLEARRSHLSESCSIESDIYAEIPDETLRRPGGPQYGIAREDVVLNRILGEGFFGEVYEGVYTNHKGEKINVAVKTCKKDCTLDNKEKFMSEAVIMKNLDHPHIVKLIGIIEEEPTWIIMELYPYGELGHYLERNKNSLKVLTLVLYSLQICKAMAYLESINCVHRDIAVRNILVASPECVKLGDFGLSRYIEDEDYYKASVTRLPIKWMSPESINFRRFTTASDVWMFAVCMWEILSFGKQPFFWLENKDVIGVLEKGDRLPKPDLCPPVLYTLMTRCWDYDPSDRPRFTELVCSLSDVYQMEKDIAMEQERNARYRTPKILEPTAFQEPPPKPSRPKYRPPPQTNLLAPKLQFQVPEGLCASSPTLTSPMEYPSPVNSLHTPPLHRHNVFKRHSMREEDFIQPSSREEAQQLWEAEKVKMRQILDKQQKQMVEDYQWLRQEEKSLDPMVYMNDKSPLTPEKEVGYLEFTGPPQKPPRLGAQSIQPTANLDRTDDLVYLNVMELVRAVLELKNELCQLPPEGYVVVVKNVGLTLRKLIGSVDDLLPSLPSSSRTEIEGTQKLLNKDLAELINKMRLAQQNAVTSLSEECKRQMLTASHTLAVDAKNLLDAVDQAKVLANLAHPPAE
Description: as §3

## O=C(Cc1ccc(-c2ccc(OCCN3CCOCC3)cc2)cn1)NCc1ccccc1 [KXO1]
[1]
  GI50: 3.5 nM
[2]
  GI50: 25 nM and 32 nM
[3]
  IC50: 31 nM
  IC80: 106 nM
  IC90: 195 nM
[4]
  phosphorylation of JAK1 Y1022/1023: not inhibited
[5]
  IC50: 46000 nM
[6]
  GI50: 0.64 nM
[7]
  GI50: 8.9 nM
[8]
  PDGF receptor Y572/574 autophosphorylation: not inhibited
[9]
  PTK selectivity in whole cells: very high PTK selectivity
[10]; SKOV-3 (Ovarian) cells
  GI50: 9.8 nM
[11]
  phosphorylation of Shc Y239/240 (Src transphosphorylation): potent inhibitor
[12]
  GI50: 85 nM
[13]
  IC50: 13.7 nM
[14]
  phosphorylation of JAK2 Y1007/1008: not inhibited
[15]
  IC50: 30 nM
  IC80: 80 nM
  IC90: 144 nM
[16]
  IC50: 51 nM
  IC80: 105 nM
  IC90: 162 nM

## O=C(Cc1ccc(-c2ccc(OCCN3CCOCC3)cc2)cn1)NCc1ccccc1 [KX2-391]
[17]
  percent activity of isolated kinase relative to control: 110%
[2]; Homo sapiens, L3.6pl
  GI50: 53 nM
[18]; 5 mg/kg
  Average weight at endpoint: 14.3 g
[5]
  IC50: 46000 nM
[19]
  percent activity of isolated kinase relative to control: 94%
[8]
  PDGF receptor Y572/574 autophosphorylation: Some effect
[20]; 5 mg/kg bid oral
  Median survival: 23
  survival Range: 22-29
[10]; Homo sapiens, SK-OV-3, SKOV-3, BrdU, T=72
  GI50: 9.75 nM
[11]
  phosphorylation of Shc Y239/240 (Src transphosphorylation): inhibited
[21]
  induction of apoptosis (Caspase-3 cleavage): very effective in inducing apoptosis
[22]
  phosphorylation of Paxillin Y-31 (Src transphosphorylation): inhibited
[23]
  percent activity of isolated kinase relative to control: 108%
[24]
  percent activity of isolated kinase relative to control: 97%

## O=C(Cc1ccc(-c2ccc(N3CCOCC3)cc2)cn1)NCc1cccc(F)c1 [KX2-361]
[18]; 15 mg/kg
  Average weight at endpoint: 16.9 g
[18]; 30 mg/kg
  Average weight at endpoint: 15.0 g
[20]; 15 mg/kg bid oral
  Median survival: 30.5
  survival Range: 25-34
[20]; 30 mg/kg bid oral
  Median survival: 29
  survival Range: 23-32
[20]; orally at 15 mg/kg/dose bid 7 hours apart
  survival of mice bearing intracranial GL261 gliomas: best results
